{"source": "patent US20070203141A1", "about": "(BOEHRINGER INGELHEIM PHARMACEUTICALS, INC., priority 2001, published 2007)", "key": {"[1]": {"tested_on": "TNFα release, human whole blood", "assay": "TNFα release from LPS stimulated human whole blood", "type": "cell-based"}, "[2]": {"assay": "Phase 1 single dose trial, pharmacokinetics", "type": "in vivo", "conditions": "human, 4 mg single dose", "protocol": "(§1) Thus, 4 mg would be efficacious in inhibiting TNFα production."}, "TNFα production [3]": {"tested_on": "TNFα production", "assay": "Human endotoxemia trial, LPS-induced TNFα production", "type": "in vivo", "conditions": "for Inhibition of LPS-induced TNFα production: human, vs placebo", "text": "Intravenous administration of endotoxin represents a safe, well-defined model of acute inflammation in humans. It is also an excellent tool to study the mechanisms contributing to inflammatory responses in man in vivo.\nThe endotoxin (LPS) was obtained from: Escherichia coli LPS (lot G; United States Pharmacopoeial Convention, Rockville, Md. USA).\nPercent inhibition was obtained by calculating the percent difference between the median peak plasma pharmacodynamic endpoint concentrations of the placebo group and the maximum endpoint concentration achieved by each individual. […] [formula]"}, "TNFα production [4]": {"tested_on": "TNFα production", "assay": "Mouse model of LPS-induced TNFα production", "type": "in vivo", "conditions": "dosed orally 30 minutes prior to LPS challenge"}, "[5]": {"assay": "Twice daily for 14 days Phase I study, pharmacokinetics", "type": "in vivo", "conditions": "human", "protocol": "(§2) This study was a Phase I, randomized, double-blind, placebo-controlled, multiple-dose trial to investigate the safety and pharmacokinetics of 15 or 30 mg of an orally available p38MAPK inhibitor administered twice daily compared to placebo for 14 days. Subjects were 49 healthy males, 16 per treatment group (one subject on placebo was discontinued). […] Based on preliminary analysis of this study, 9 of 48 subjects had transaminase values above the upper limit of normal (UNL), 2 in the placebo, 3 in the 15 mg dose group and 4 in 30 mg dose group. Three subjects experienced ALT rises 2-3 fold greater than UNL, one in each dose group. […] There were no relevant changes in other laboratory studies, EKGs or physical examinations."}, "[6]": {"tested_on": "PMN (neutrophil) activation in human whole blood", "assay": "Once daily for 7 days study, ex vivo TNFα or fMLP induced activation state of PMN (Mac-1/Lselectin ratio)", "type": "in vivo", "protocol": "(§3) This was a randomized, double-blind, placebo-controlled (2:6 ratio per dose group), multiple dose (20, 50 and 150 mg) study to assess pharmacokinetics, pharmacodynamics, safety and tolerability using a tablet formulation administered once a day for one week. Safety was determined by adverse events, laboratory tests, and physical examination. Kinetics were assessed by measuring plasma levels of drug and pharmacodynamics was assessed ex vivo by the effects of LPS induced production of TNFα, and the TNFα or fMLP induced activation state of PMN in human whole blood as measured by the ratio of Mac-1/Lselectin cell surface expression. Twenty-four healthy male volunteers (mean age 30 years, mean weight 76 kg) were studied. […] Two subjects receiving the 150 mg dose developed acne. There were no clinically significant changes in laboratory assessments except for a dose related, reversible rise in AST and ALT. […] This transaminase increase was not associated with changes in other liver function tests, nor was it associated with any liver related signs or symptoms. […] Steady-state was attained within 2 days."}, "[7]": {"assay": "Once daily for 7 days multiple dose study, safety and tolerability", "type": "in vivo, human", "protocol": "Transaminase levels peaked 2 to 4 days after the end of drug therapy on day 7 with resolution over the next 7 to 14 days.\nas §3"}, "[8]": {"assay": "Once daily for 7 days multiple dose study, pharmacokinetics", "type": "in vivo", "conditions": "human", "protocol": "as §3"}, "[9]": {"assay": "Twice daily for 14 days Phase I study, safety", "type": "in vivo, human", "conditions": "for Subjects with transaminase values above the upper limit of normal: preliminary analysis, placebo 2", "protocol": "as §2"}, "[10]": {"tested_on": "TNFα release from LPS stimulated human PBMC", "assay": "TNFα release from LPS stimulated human PBMC", "type": "cell-based"}, "TNFα [11]": {"tested_on": "TNFα", "assay": "Single dose rising trial (U00-1627), ex vivo TNFα inhibition", "type": "in vivo, human", "conditions": "single dose rising trial U00-1627", "protocol": "as §1\nThis discrepancy between in vivo and ex vivo and in vivo and in vitro was also observed in cynomolgus monkeys (U99-3145)."}, "plasma TNFα production": {"tested_on": "plasma TNFα production", "assay": "Cynomolgus monkey endotoxin model, IV dosing just prior to LPS challenge", "type": "in vivo", "conditions": "vs vehicle", "text": "(§4) As a surrogate model for man, we developed an endotoxin model in the cynomolgus monkey to examine the effect of p38 MAPK inhibitors on modulating TNFα production."}, "[12]": {"tested_on": "TNFα release, monkey whole blood", "assay": "TNFα release from LPS stimulated monkey whole blood", "type": "cell-based", "text": "as §4"}, "TNFα [13]": {"tested_on": "TNFα", "assay": "Once daily for 7 days study, ex vivo LPS induced production of TNFα in human whole blood", "conditions": "any of the doses used (20, 50, 150 mg once daily for 7 days)", "protocol": "as §3"}, "TNFα production [14]": {"tested_on": "TNFα production", "assay": "Cynomolgus monkey endotoxin model, duration of action, PO chewable tablets 12 hours prior to LPS", "type": "in vivo", "conditions": "for Inhibition of TNFα production: vs placebo; for Peak plasma level: cynomolgus monkey", "text": "as §4"}, "[15]": {"conditions": "150 mg once daily for 7 days, all 6 subjects"}}, "note": "Values joined by “and” are separate entries in the source; they are usually repeats but may differ in a detail not shown here. Identical values can stand only once."}
{"smiles": "Cc1ccc(-n2nc(C(C)(C)C)cc2NC(=O)Nc2ccc(OCCN3CCOCC3)c3ccccc23)cc1", "note": "[BIRB 796 BS]", "values": [{"measurement": "IC50", "setting": "[1]", "result": 800, "unit": "nM"}, {"measurement": "Cmax", "setting": "[2]", "result": "23.8 ± 5.71", "unit": "ng/mL"}, {"measurement": "EC50 for inhibiting TNFα production in vivo", "setting": "TNFα production [3]; Emax model, plasma concentration ten minutes prior to LPS challenge", "result": 0.02372, "unit": "µg/mL"}, {"measurement": "Emax (% Inhibition), TNFα", "setting": "TNFα production [3]; Emax model, pre-LPS challenge plasma concentration vs percent inhibition of peak TNFα", "result": "95% and 95.34%"}, {"measurement": "Inhibition of LPS-induced TNFα production", "setting": "TNFα production [3]; 50 mg orally 3 hours prior to LPS challenge", "result": 88, "unit": "%"}, {"measurement": "Inhibition of LPS-induced TNFα production", "setting": "TNFα production [3]; 600 mg orally 3 hours prior to LPS challenge", "result": 97, "unit": "%"}, {"measurement": "ED50, inhibition of LPS-induced TNFα", "setting": "TNFα production [4]", "result": "approximately 10 mg/kg"}, {"measurement": "AUC0-12 (mean±SD) on day 14", "setting": "[5]; 15 mg twice daily", "result": "334 ± 145", "unit": "ng·h/mL"}, {"measurement": "Cmax (mean±SD) on day 14", "setting": "[5]; 15 mg twice daily", "result": "109 ± 51", "unit": "ng/mL"}, {"measurement": "AUC0-12 (mean±SD) on day 14", "setting": "[5]; 30 mg twice daily", "result": "659 ± 449", "unit": "ng·h/mL"}, {"measurement": "Cmax (mean±SD) on day 14", "setting": "[5]; 30 mg twice daily", "result": "208 ± 109", "unit": "ng/mL"}, {"measurement": "Mean elimination half-life", "setting": "[5]; 15 or 30 mg twice daily for 14 days", "result": 7.3, "unit": "h"}, {"measurement": "Ex vivo neutrophil activation", "setting": "[6]; 4 hours post dosing", "result": "dose dependent inhibition"}, {"measurement": "Ex vivo neutrophil activation", "setting": "[6]; 24 hours post dosing, various dose levels", "result": "mixed pattern of neutrophil inhibition and activation"}, {"measurement": "Change in γ-GT", "setting": "[7]; 150 mg daily for seven days", "result": "small increase in γ-GT"}, {"measurement": "Elevations in AST and ALT", "setting": "[7]; 150 mg daily for seven days", "result": "moderate elevations in AST and ALT"}, {"measurement": "Tolerability", "setting": "[7]; 150 mg for seven days", "result": "not considered well tolerated"}, {"measurement": "Rise in ALT above the upper limit of normal", "setting": "[7]; [15]", "result": "≤ 3.5", "unit": "fold"}, {"measurement": "Rise in AST above the upper limit of normal", "setting": "[7]; [15]", "result": "≤ 2", "unit": "fold"}, {"measurement": "Tolerability", "setting": "[7]; doses up to 50 mg (20 and 50 mg) daily for 7 days", "result": "well tolerated"}, {"measurement": "Day 7 mean AUC0-24", "setting": "[8]; 20 mg once daily", "result": 364, "unit": "ng·h/mL"}, {"measurement": "Day 7 mean Cmax", "setting": "[8]; 20 mg once daily", "result": 116, "unit": "ng/mL"}, {"measurement": "Day 7 mean AUC0-24", "setting": "[8]; 50 mg once daily", "result": 1324, "unit": "ng·h/mL"}, {"measurement": "Day 7 mean Cmax", "setting": "[8]; 50 mg once daily", "result": 308, "unit": "ng/mL"}, {"measurement": "Day 7 mean AUC0-24", "setting": "[8]; 150 mg once daily", "result": 5924, "unit": "ng·h/mL"}, {"measurement": "Day 7 mean Cmax", "setting": "[8]; 150 mg once daily", "result": 1108, "unit": "ng/mL"}, {"measurement": "Time to steady-state", "setting": "[8]; once daily dosing", "result": "≤ 2", "unit": "days"}, {"measurement": "Subjects with transaminase values above the upper limit of normal", "setting": "[9]; 15 mg twice daily group (16 per group)", "result": 3, "unit": "subjects"}, {"measurement": "Subjects with transaminase values above the upper limit of normal", "setting": "[9]; 30 mg twice daily group (16 per group)", "result": 4, "unit": "subjects"}, {"measurement": "Tolerability", "setting": "[9]; doses up to 30 mg twice daily for two weeks", "result": "well tolerated"}, {"measurement": "IC50", "setting": "[10]", "result": 21, "unit": "nM"}, {"measurement": "Ex vivo inhibition of TNFα production", "setting": "TNFα [11]; 50 mg", "result": "no inhibition was observed"}, {"measurement": "EC50 calculated from ex-vivo inhibition of TNFα", "setting": "TNFα [11]", "result": 1.228, "unit": "µg/mL"}, {"measurement": "Inhibition of plasma TNFα production", "setting": "plasma TNFα production; 0.3 mg/kg IV just prior to LPS 400 ng/kg IV", "result": "not significantly inhibited"}, {"measurement": "Inhibition of plasma TNFα production", "setting": "plasma TNFα production; 1 mg/kg IV just prior to LPS 400 ng/kg IV, p<0.005", "result": 85, "unit": "%"}, {"measurement": "Inhibition of plasma TNFα production", "setting": "plasma TNFα production; 3 mg/kg IV just prior to LPS 400 ng/kg IV, p<0.005", "result": 90, "unit": "%"}, {"measurement": "IC50", "setting": "[12]", "result": 4000, "unit": "nM"}, {"measurement": "Ex vivo inhibition of TNFα", "setting": "TNFα [13]", "result": "No inhibition"}, {"measurement": "Inhibition of TNFα production", "setting": "TNFα production [14]; 1 mg/kg PO 12 hours prior to IV LPS, NS", "result": 44, "unit": "%"}, {"measurement": "Inhibition of TNFα production", "setting": "TNFα production [14]; 3 mg/kg PO 12 hours prior to IV LPS, p<0.05", "result": 61, "unit": "%"}, {"measurement": "Inhibition of TNFα production", "setting": "TNFα production [14]; 20 mg/kg PO 12 hours prior to IV LPS, p<0.01", "result": 84, "unit": "%"}, {"measurement": "Peak plasma level", "setting": "TNFα production [14]; 1 mg/kg PO chewable tablets", "result": 0.003, "unit": "µM"}, {"measurement": "Peak plasma level", "setting": "TNFα production [14]; 3 mg/kg PO chewable tablets", "result": 0.02, "unit": "µM"}, {"measurement": "Peak plasma level", "setting": "TNFα production [14]; 20 mg/kg PO chewable tablets", "result": 1.4, "unit": "µM"}]}
